Measured values reported in patent publication US20100310679A1, “NOVEL COMPOSITIONS FOR CONTROL OF MALICIOUS MARINE ANEMONES” (priority 2008, published 2010).

Tested on: marine pest anemone
Experiment: Empirically determined effective concentration ranges of ingredients in agar-anemonescide-desensitizer preparation
Format: in vivo
Settings: concentration of the ingredient in the agar-anemonescide-desensitizer preparation
Text: Table 1 also lists the empirically determined effective concentration ranges of the various ingredients. While it is believed that less than the minimal effective concentrations might impair the effectiveness of that ingredient, and more than effective concentration will not further improve the effectiveness, it is to be understood that the table is provided by way of enablement and is not to be construed as limiting the invention to the preferred ranges.

Row | Structure (SMILES) | Empirically Determined Effective Concentration range (Min-Max)
1 | O=S(=O)([O-])[O-].[Ca+2] [CaSO4, calcium sulphate] | 5 to 150 g/L
2 | O.O.[Ca+2].[Cl-].[Cl-] [CaCl2•2H2O] | 10-500 g/l
3 | O=S(=O)([O-])[O-].[Mg+2] [MgSO4, magnesium sulphate] | 0.5 to 10 g/L
4 | [Na+].[OH-] [NaOH, sodium hydroxide] | 5 to 120 g/L

Tested on: sea anemone Anthopleura midorii
Experiment: not given
Settings: added to artificial food; cited from earlier work

Row | Structure (SMILES) | effect on feeding motions
5 | O=C(O)[C@@H]1CCCN1 [proline] | evoked mouth opening
6 | N[C@@H](CCC(=O)N[C@@H](CS)C(=O)NCC(=O)O)C(=O)O [reduced glutathione (GSH), reduced glutathione] | induced food ingestion
7 | N[C@@H](Cc1c[nH]cn1)C(=O)O [histidine] | stimulated the retention of artificial food by tentacles
8 | C[C@H](N)C(=O)O [alanine] | stimulated the retention of artificial food by tentacles
9 | N[C@@H](CS)C(=O)O [Cysteine] | induced food ingestion
10 | NCC(=O)O [glycine] | stimulated the retention of artificial food by tentacles
11 | NC(=O)C[C@H](N)C(=O)O [asparagine] | stimulated the retention of artificial food by tentacles
